Assay results: PMC7377239, “Cardiovascular Effects of Polychlorinated Biphenyls and Their Major Metabolites” (Environmental Health Perspectives, 2020)
Where two headings read alike, the source gives them in different places.

Tested on: iCell cardiomyocytes (human iPSC-derived cardiomyocytes)
Assay: Intracellular Ca2+ flux / beating parameters in iCell cardiomyocytes (FLIPR tetra), 90 min or 24 h
Assay type: cell-based
Conditions: 0.00 µM = 100.00; for activity at 0.01 µM / activity at 0.1 µM / activity at 1 µM / activity at 10 µM / activity at 100 µM: Homo sapiens, Cardiomyocyte
Method in brief: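 PODs were defined as the concentration crossing one SD of the vehicle-control means (0.5% DMSO) on four-parameter logistic fits of Ca2+ trace metrics (peak height, frequency, peak-spacing CV, decay/rise ratio). Traces came from 100 s, 8 Hz FLIPR reads at 37 °C on calcium-dye-loaded iCell cardiomyocytes. Before reading, cells were treated for 90 min or 24 h from 5× chemical plates spanning 0.05–500 µM, in triplicate.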

Clc1ccc(Cl)c(-c2c(Cl)ccc(Cl)c2Cl)c1Cl [(+)-PCB 136, 2,2′,3,3′,6,6′-hexachlorobiphenyl] was tested, and the cm.amp.avg.24hrs (0.01 µM, 24hrs) was 54.01, the cm.amp.cv.24hrs (0.01 µM, 24hrs) was 158.80 and the cm.amp.avg.24hrs (0.10 µM, 24hrs) was 107.99. The cm.amp.cv.24hrs (0.10 µM, 24hrs) was 72.89, the cm.bpm.24hrs (0.10 µM, 24hrs) was 96.42 and the cm.decay.rise.24hrs (0.10 µM, 24hrs) was 106.79. The cm.spacing.cv.24hrs (0.10 µM, 24hrs) was 105.08, the cm.amp.cv.24hrs (1.00 µM, 24hrs) was 92.90 and the cm.bpm.24hrs (1.00 µM, 24hrs) was 94.51. It also gave a cm.decay.rise.24hrs (1.00 µM, 24hrs) of 114.76, a cm.spacing.cv.24hrs (1.00 µM, 24hrs) of 110.09 and a cm.bpm.90min (10.00 µM, 90min) of 82.76. The cm.decay.rise.90min (10.00 µM, 90min) was 115.77, the cm.amp.avg.24hrs (10.00 µM, 24hrs) was 0.00 and the cm.amp.cv.24hrs (10.00 µM, 24hrs) was 0.00. For the same molecule, the cm.bpm.24hrs (10.00 µM, 24hrs) was 0.00, the cm.decay.rise.24hrs (10.00 µM, 24hrs) was 0.00 and the cm.spacing.cv.24hrs (10.00 µM, 24hrs) was 0.00. The activity at 0.01 µM (1.5 h, 0.01 µM, 90min, read-out: cm.amp.avg.90min) was 106%, the activity at 0.01 µM (1.5 h, 0.01 µM, 90min, read-out: cm.amp.cv.90min) was 96.9% and the activity at 0.01 µM (1.5 h, 0.01 µM, 90min, read-out: cm.bpm.90min) was 97.8%. For the same molecule, the activity at 0.01 µM (1.5 h, 0.01 µM, 90min, read-out: cm.decay.rise.90min) was 99%, the activity at 0.01 µM (1.5 h, 0.01 µM, 90min, read-out: cm.spacing.cv.90min) was 101% and the activity at 0.1 µM (1.5 h, 0.10 µM, 90min, read-out: cm.amp.avg.90min) was 107%. For the same molecule, the activity at 0.1 µM (1.5 h, 0.10 µM, 90min, read-out: cm.amp.cv.90min) was 112%, the activity at 0.1 µM (1.5 h, 0.10 µM, 90min, read-out: cm.bpm.90min) was 96.5% and the activity at 0.1 µM (1.5 h, 0.10 µM, 90min, read-out: cm.decay.rise.90min) was 99.7%. For the same molecule, the activity at 0.1 µM (1.5 h, 0.10 µM, 90min, read-out: cm.spacing.cv.90min) was 115%, the activity at 1 µM (1.5 h, 1.00 µM, 90min, read-out: cm.amp.avg.90min) was 107% and the activity at 1 µM (1.5 h, 1.00 µM, 90min, read-out: cm.amp.cv.90min) was 120%. It also gave an activity at 1 µM (1.5 h, 1.00 µM, 90min, read-out: cm.bpm.90min) of 87.8%, an activity at 1 µM (1.5 h, 1.00 µM, 90min, read-out: cm.decay.rise.90min) of 107% and an activity at 1 µM (1.5 h, 1.00 µM, 90min, read-out: cm.spacing.cv.90min) of 107%. For the same molecule, the activity at 10 µM (1.5 h, 10.00 µM, 90min, read-out: cm.amp.avg.90min) was 94.4%, the activity at 10 µM (1.5 h, 10.00 µM, 90min, read-out: cm.amp.cv.90min) was 114% and the activity at 10 µM (1.5 h, 10.00 µM, 90min, read-out: cm.spacing.cv.90min) was 118%. For the same molecule, the activity at 100 µM (1.5 h, 90min, read-out: cm.amp.avg.90min) was 0%, the activity at 100 µM (1.5 h, 90min, read-out: cm.amp.cv.90min) was 0% and the activity at 100 µM (1.5 h, 90min, read-out: cm.bpm.90min) was 0%. It also gave an activity at 100 µM (1.5 h, 90min, read-out: cm.decay.rise.90min) of 0%, an activity at 100 µM (1.5 h, 90min, read-out: cm.spacing.cv.90min) of 0% and an activity at 0.01 µM (24 h, 0.01 µM, 24hrs, read-out: cm.bpm.24hrs) of 105%. It also gave an activity at 0.01 µM (24 h, 0.01 µM, 24hrs, read-out: cm.decay.rise.24hrs) of 93.3%, an activity at 0.01 µM (24 h, 0.01 µM, 24hrs, read-out: cm.spacing.cv.24hrs) of 104% and an activity at 1 µM (24 h, 1.00 µM, 24hrs, read-out: cm.amp.avg.24hrs) of 83.3%. It also gave an activity at 100 µM (24 h, 24hrs, read-out: cm.amp.avg.24hrs) of 0%, an activity at 100 µM (24 h, 24hrs, read-out: cm.amp.cv.24hrs) of 0% and an activity at 100 µM (24 h, 24hrs, read-out: cm.bpm.24hrs) of 0%. It also gave an activity at 100 µM (24 h, 24hrs, read-out: cm.decay.rise.24hrs) of 0% and an activity at 100 µM (24 h, 24hrs, read-out: cm.spacing.cv.24hrs) of 0%.
